Laboratory results as given in patent US4687864A, “5-fluoro-3-oxa-prostacyclin compounds” (G. D. Searle & Co., priority 1985, dated 1987).

Key:
[1] = system: ADP-Induced platelet aggregation; assay: Inhibition of ADP-induced platelet aggregation, in vitro (platelet rich plasma); assay type: cell-based; conditions: Rattus norvegicus, compound preincubated 1 minute, read-out: Results (IC50 (Molar))
Procedure: Inhibition of ADP-Induced platelet aggregation, in vitro.
Aggregation was determined using a Payton Dual Channel Aggregation Module. A Riker-Denshi recorder was used fo recording the aggregation curves.
The addition of ADP to platelet-rich plasma induces platelet aggregation.
After the PRP fraction was removed, the remainder was spun at 900×g for 15 mins. to obtain platelet poor plasma (PPP) (1800 RPM in IEC PR 6000). The number of platelets per ml PRP is determined by counting a 50 μl aliquot of PRP in a Coutter ZBI counter and channelyzer Model C-1000.
PRP is diluted with PPP 1:2 to obtain a count of approx. 25000 on the screen or 10^9 platelets/ml PRP to evaluate the anti-aggregating agent. The module was standardized with an aliquot of PPP and that of diluted PRP.
The aggregating agent used is ADP prepared as follows:
Prostacyclin is used as the standard of antiaggregatory activity for determining the potency of compounds tested. A 10^2 M solution (to give a starting concentration of 10^-4 M when 4 μL is added to 400 μL PRP) is diluted serially to obtain solutions with final concentrations of 10^-6, 10^-7, 10^-8, 10^-9 M.
Determine the dose of ADP which on a standard curve would be on the linear portion and allow reversal of the aggregation curve.
Determine the PGI2 standard curve of percentage inhibition of aggregation. Use saline in control cuvette to compare the extent of inhibition by PGI2 are represented by the depth of the aggregation curve. Allow the PRP to preincubate for approximately one minute prior to the addition of prostacyclin and another minute with PGI2 prior to the addition of ADP.
The % inhibition is plotted against prostacyclin dose on semilog paper.
The test compound is added to PRP and preincubated for 1 minute prior to ADP administration.

[2] = system: ulcerogenic effect induced by certain non-steriodal and steroidal anti-inflammatory agents; conditions: rats, concomitant oral administration; cited from earlier work
[3] = physiological pH; cited from earlier work
platelet aggregation = conditions: background, cited from earlier work

| Compound | IC50 [1] | ulcerogenic effect induced by anti-inflammatory agents [2] | further results |
| --- | --- | --- | --- |
| CCCCC[C@H](O)/C=C/[C@@H]1[C@H]2C/C(=C/COCC(=O)OC(C)(C)C)O[C@H]2C[C@H]1O (relative stereo) [3-oxa prostacyclin Tert-butyl ester, 1,1-Dimethylethyl(3aS,3aα,6aα)[2-[hexahydro-5β-hydroxy-4α-(3S*-hydroxy-1E-octenyl)-2H-cyclopenta-[b]furan-2Z-ylidene]ethoxy]acetate] | 1 µM | – | – |
| CCCCC[C@H](O)/C=C/[C@H]1[C@H](O)CC(=O)[C@@H]1CCCCCCC(=O)O [PGE1] | – | inhibited | – |
| CCCCC[C@H](O)CC[C@H]1[C@H](O)CC(=O)[C@@H]1CCCCCCC(=O)O [13, 14-dihydro-PGE1] | – | inhibited | – |
| CC/C=C\C[C@H](O)/C=C/[C@H]1[C@H](O)CC(=O)[C@@H]1C/C=C\CCCC(=O)O [PGE3] | – | inhibited | – |
| CCCCC[C@H](O)/C=C/[C@@H]1[C@H]2C/C(=C/CCCC(=O)O)O[C@H]2C[C@H]1O [Prostacyclin, (5Z)-9-deoxy-6,9α-epoxy-Δ^5 -PGF1] | 0.006 µM | – | half period of its activity [3]: only about several minutes; duration of antiplatelet aggregation effect (platelet aggregation): short lived; hypotensive effects (platelet aggregation): often affords unwanted hypotensive effects; doses required for platelet aggregation inhibiting action and antihypertensive action (platelet aggregation; selectivity of action): almost equal to each other |
| CCCCC[C@H](O)/C=C/[C@H]1[C@H](O)CC(=O)[C@@H]1C/C=C\CCCC(=O)O [PGE2] | – | inhibited | – |
| CCCCC[C@H](O)/C=C/[C@@H]1[C@H]2C=C(C(F)COCC(=O)OC(C)(C)C)O[C@H]2C[C@H]1O (relative stereo) [1,1-Dimethylethyl(3aS,3aα,6aα)[2-fluoro-2-[4,5,6,6aα-tetrahyro-5β-hydroxy-4α-(3S*-hydroxy-1E-octenyl)-3aS,3aαH,-cyclopenta[b]furanyl]ethoxy]acetate] | 4 µM | – | – |
